In ChEMBL document CHEMBL3352576, “Synthesis and antitumor activities of novel hybrid molecules containing 1,3,4-oxadiazole and 1,3,4-thiadiazole bearing Schiff base moiety” (Bioorg Med Chem Lett, 2014) one finds IC50 data, which are given here for 15 compounds.

Assay type in all cases: functional, cell-based
Assay [1] can be described thus: Antiproliferative activity against human SMMC7721 cells assessed as inhibition of cell proliferation by CCK8 assay. The note with it: SMMC-7721. (Tetrazolium dyes change colour on reduction, which living cells bring about.)
For the next assay, the system named is A549. The experiment in a line: Antiproliferative activity against human A549 cells assessed as inhibition of cell proliferation by CCK8 assay.
Another assay concerns MCF7. The experiment in a line: Antiproliferative activity against human MCF7 cells assessed as inhibition of cell proliferation by CCK8 assay.

The structures appear in SMILES notation. pIC50: −log10 of the molar value.

Take `O=c1[nH]cc(F)c(=O)[nH]1` [FLUOROURACIL]: the pIC50 in assay [1] is 5.25; in the assay with A549, 5.09.
Regarding `Oc1ccccc1/C=N/c1nnc(SCc2nnc(-c3ccc(Br)cc3)o2)s1`, the pIC50 in assay [1] is 4.75; with MCF7 it was 5.08; with A549, 4.70.
The corresponding values for `O=[N+]([O-])c1ccc(-c2nnc(CSc3nnc(/N=C/c4ccccc4O)s3)o2)cc1` are 4.77, 5.37 and 5.38.
The corresponding values for `Cc1ccccc1-c1nnc(CSc2nnc(/N=C/c3ccccc3O)s2)o1` are 4.81, 5.03 and 5.11.
On to `COc1cc(-c2nnc(CSc3nnc(/N=C/c4ccccc4O)s3)o2)cc(OC)c1OC`, for which the negative logarithm of the IC50 (pIC50) in assay [1] is 5.12; in the assay with MCF7 it was 5.10; in the assay on A549, 5.18.
The corresponding values for `Oc1ccccc1/C=N/c1nnc(SCc2nnc(-c3ccccc3)o2)s1` are 5.15, 5.01 and 5.39.
Taken in the same sequence, the figures for `Oc1ccccc1/C=N/c1nnc(SCc2nnc(-c3ccc(F)cc3)o2)s1` were 4.88, 4.81 and 4.70.
The corresponding values for `O=[N+]([O-])c1cccc(-c2nnc(CSc3nnc(/N=C/c4ccccc4O)s3)o2)c1` are 4.80, 4.86 and 4.43.
Take `Cc1ccc(-c2nnc(CSc3nnc(/N=C/c4ccccc4O)s3)o2)cc1`: the pIC50 was 4.43 in assay [1], 5.06 in the assay with MCF7 and 4.66 in the assay on A549.
As to `Oc1ccccc1/C=N/c1nnc(SCc2nnc(-c3ccccc3Br)o2)s1`, the negative logarithm of the IC50 (pIC50) was 5.17 in assay [1], 5.04 in the assay with MCF7 and 5.15 in the assay on A549.
The corresponding values for `Oc1ccccc1/C=N/c1nnc(SCc2nnc(-c3ccc(Cl)cc3)o2)s1` are 5.55, 5.12 and 4.52.
The corresponding values for `COc1ccc(-c2nnc(CSc3nnc(/N=C/c4ccccc4O)s3)o2)cc1` are 5.00, 5.34 and 4.69.
The corresponding values for `Cc1cccc(-c2nnc(CSc3nnc(/N=C/c4ccccc4O)s3)o2)c1` are 5.34, 4.94 and 4.61.
`COc1cccc(-c2nnc(CSc3nnc(/N=C/c4ccccc4O)s3)o2)c1`: the pIC50 was 5.36 in assay [1], 4.66 in the assay with MCF7 and 5.05 in the assay with A549.
Taken in the same sequence, the figures for `Oc1ccccc1/C=N/c1nnc(SCc2nnc(-c3ccccc3Cl)o2)s1` were 4.50, 4.74 and 4.74.

For orientation: pIC50 means the negative decadic logarithm of the IC50, by convention in mol/L.
